Data on two compounds can be found in ChEMBL document CHEMBL4052647, “Synthesis and pharmacological evaluation of novel chromone derivatives as balanced multifunctional agents against Alzheimer's disease” (Bioorg Med Chem, 2017).

Calls of active or inactive are those of the source. The rule behind the calls is not given here.

One data set in a line: physchem. To be noted: PAMPA. Background: In PAMPA a lipid-coated filter parts donor from acceptor wells.
Data set [1] can be described thus: Metal chelating activity of the compound assessed as formation of ferric-compound complex at 50 uM after 30 mins by UV-vis spectrophotometric method.
Data set [2] is described as follows: Metal chelating activity assessed as mole fraction of compound required to show 1:1 stoichiometry for Cu2+-compound complex by Job's plot method.
The nature of data set [3]: Metal chelating activity of the compound assessed as formation of ferrous-compound complex at 50 uM after 30 mins by UV-vis spectrophotometric method.
Data set [4] concerns PC-12. Put plainly: Neuroprotective activity against H2O2-induced cell death in rat PC12 cells assessed as increase in cell viability at 20 uM pretreated for 24 hrs followed by H2O2 induction after 24 hrs by MTT assay. The format is functional, cell-based. (In general: Tetrazolium dyes change colour on reduction, which living cells bring about.)
The species named for a further data set is Homo sapiens. The data set is described as follows: Selectivity index, ratio of IC50 for recombinant human MAO-A expressed in baculovirus infected BTI insect cells to IC50 for recombinant human MAO-B expressed in baculovirus infected BTI insect cells.
Data set [5] concerns the target T1, Amine oxidase [flavin-containing] B (Homo sapiens, UniProt P27338).
T1 sequence (P27338 whole entry): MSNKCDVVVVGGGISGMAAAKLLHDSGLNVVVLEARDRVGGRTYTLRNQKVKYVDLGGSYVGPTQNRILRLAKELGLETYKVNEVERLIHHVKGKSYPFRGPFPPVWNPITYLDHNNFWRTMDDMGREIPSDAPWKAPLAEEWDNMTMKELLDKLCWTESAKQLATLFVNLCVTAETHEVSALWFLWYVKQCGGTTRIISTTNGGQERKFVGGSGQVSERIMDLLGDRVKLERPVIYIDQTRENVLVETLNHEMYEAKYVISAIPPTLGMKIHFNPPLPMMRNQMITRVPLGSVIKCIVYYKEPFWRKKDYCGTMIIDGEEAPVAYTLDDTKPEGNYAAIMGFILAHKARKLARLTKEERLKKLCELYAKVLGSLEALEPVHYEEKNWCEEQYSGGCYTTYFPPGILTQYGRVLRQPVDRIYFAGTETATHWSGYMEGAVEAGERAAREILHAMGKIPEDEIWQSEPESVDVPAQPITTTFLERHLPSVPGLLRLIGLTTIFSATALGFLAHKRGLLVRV
The data set is described as follows: biochemical. The class given is cell-based.
Description: Inhibition of recombinant human MAO-B expressed in baculovirus infected BTI insect cells using p-tyramine as substrate pretreated for 15 mins followed by substrate addition after 20 mins by Amplex red reagent based fluorimetric method

Data set [6] in a line: Metal chelating activity of the compound assessed as formation of Cu2+-compound complex at 50 uM after 20 mins by fluorescence emission spectral analysis.
Data set [7] in a line: Metal chelating activity of the compound assessed as formation of zinc-compound complex at 50 uM after 20 mins by fluorescence emission spectral analysis.
Data set [8] can be described thus: Antioxidant activity assessed as trolox equivalent of […]-induced radical scavenging activity at 1 to 10 uM preincubated for 15 mins followed by AAPH addition measured every minute for 120 mins by ORAC fluorescein assay. The class given is functional.
The subject of data set [9] is PC-12. Put plainly: Neuroprotective activity against H2O2-induced cell death in rat PC12 cells assessed as increase in cell viability at 1 to 5 uM pretreated for 24 hrs followed by H2O2 induction after 24 hrs by MTT assay. The class given is functional, cell-based.
Data set [10] concerns PC-12. The data set is described as follows: Cytotoxicity against rat PC12 cells at 20 uM after 24 hrs by MTT assay. The class given is cell-based. To be noted: pc-12, 24 h.
In data set [11] the target is T2, Amine oxidase [flavin-containing] A (Homo sapiens, UniProt P21397).
T2 sequence (P21397 whole entry): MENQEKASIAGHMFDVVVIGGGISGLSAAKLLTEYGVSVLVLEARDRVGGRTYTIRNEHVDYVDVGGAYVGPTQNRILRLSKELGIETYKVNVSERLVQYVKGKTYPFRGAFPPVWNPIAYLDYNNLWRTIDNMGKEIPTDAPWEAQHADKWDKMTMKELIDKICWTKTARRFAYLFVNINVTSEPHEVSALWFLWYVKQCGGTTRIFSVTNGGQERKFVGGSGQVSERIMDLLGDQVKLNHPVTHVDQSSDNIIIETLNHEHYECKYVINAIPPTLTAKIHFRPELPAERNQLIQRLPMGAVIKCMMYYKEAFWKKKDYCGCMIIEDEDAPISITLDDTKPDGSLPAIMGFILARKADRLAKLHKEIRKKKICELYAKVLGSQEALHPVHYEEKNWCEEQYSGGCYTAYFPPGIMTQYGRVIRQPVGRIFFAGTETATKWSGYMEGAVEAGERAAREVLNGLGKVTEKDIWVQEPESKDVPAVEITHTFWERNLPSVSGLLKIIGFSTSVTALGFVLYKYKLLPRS
Put plainly: Inhibition of recombinant human MAO-A expressed in baculovirus infected BTI insect cells using p-tyramine as substrate pretreated for 15 mins followed by substrate addition after 20 mins by Amplex red reagent based fluorimetric method.

Data set [12] relates to PC-12. Put plainly: Neuroprotective activity against H2O2-induced cell death in rat PC12 cells assessed as increase in cell viability at 10 uM pretreated for 24 hrs followed by H2O2 induction after 24 hrs by MTT assay. The format is functional, cell-based.
A short description of data set [13]: Metal chelating activity of the compound assessed as formation of Cu2+-compound complex at 50 uM after 30 mins by UV-vis spectrophotometric method.
Data set [14] in a line: Metal chelating activity of the compound assessed as formation of ferrous-compound complex at 50 uM after 20 mins by fluorescence emission spectral analysis.
Data set [15] has as its system PC-12. Put plainly: Neuroprotective activity against H2O2-induced oxidative stress in rat PC12 cells assessed as reduction in intracellular reactive oxygen species level after 24 hrs by DCFH-DA probe based flow cytometric analysis. The class given is functional, cell-based. On the technique in general: Flow cytometry measures light scatter and fluorescence of single cells or particles in a stream.

The nature of data set [16]: Metal chelating activity assessed as inhibition of Cu2+-induced amyloid beta (1 to 42 residues) aggregation by measuring reduction in amyloid fibrils at 50 uM […] by uranyl acetate staining based transmission electron microscopic analysis.
The nature of data set [17]: Metal chelating activity of the compound assessed as formation of ferric-compound complex at 50 uM after 20 mins by fluorescence emission spectral analysis.
Data set [18] can be described thus: Metal chelating activity assessed as inhibition of Cu2+-induced amyloid beta (1 to 42 residues) aggregation at 50 uM after 24 hrs by thioflavin-T fluorescence assay (reference value: 142%).
The target of data set [19] is Amyloid-beta precursor protein (Homo sapiens) (UniProt P05067). The data set is described as follows: Inhibition of HFIP-pretreated amyloid beta (1 to 42) (unknown origin) self-induced aggregation at 20 uM after 46 to 48 hrs by thioflavin-T fluorescence assay relative to control.
Data set [20] has the same target. The data set is described as follows: Potency index, ratio of compound effect to curcumin effect for inhibition of HFIP-pretreated amyloid beta (1 to 42) (unknown origin) self-induced aggregation at 20 uM.

Amyloid-beta precursor protein (Homo sapiens), sequence (P05067 whole entry): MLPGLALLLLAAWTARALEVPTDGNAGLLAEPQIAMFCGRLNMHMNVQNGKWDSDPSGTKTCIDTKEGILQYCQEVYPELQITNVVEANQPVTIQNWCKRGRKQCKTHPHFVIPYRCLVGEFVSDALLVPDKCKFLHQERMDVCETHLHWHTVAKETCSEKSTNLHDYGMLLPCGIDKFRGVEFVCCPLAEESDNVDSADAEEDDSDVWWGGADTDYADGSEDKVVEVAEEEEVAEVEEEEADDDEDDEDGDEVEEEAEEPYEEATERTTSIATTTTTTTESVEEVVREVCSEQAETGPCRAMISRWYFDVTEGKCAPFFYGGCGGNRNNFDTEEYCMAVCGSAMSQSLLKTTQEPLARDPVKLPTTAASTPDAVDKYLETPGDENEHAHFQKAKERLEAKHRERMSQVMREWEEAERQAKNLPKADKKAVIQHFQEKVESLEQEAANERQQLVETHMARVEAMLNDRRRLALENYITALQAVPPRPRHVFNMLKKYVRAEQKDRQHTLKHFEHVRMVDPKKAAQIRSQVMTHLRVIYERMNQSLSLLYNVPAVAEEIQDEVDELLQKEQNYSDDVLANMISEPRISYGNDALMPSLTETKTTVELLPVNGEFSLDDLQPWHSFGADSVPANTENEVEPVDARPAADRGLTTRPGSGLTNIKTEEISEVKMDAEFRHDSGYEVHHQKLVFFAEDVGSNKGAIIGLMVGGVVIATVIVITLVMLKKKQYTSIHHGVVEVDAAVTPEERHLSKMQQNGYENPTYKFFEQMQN

Usually Papp stands for a coefficient for how fast a substance crosses the barrier. The IC50 is the concentration that gives 50% inhibition. Usually inhibition stands for the drop in the measured response relative to a control, in per cent. On to `Cc1ccc(O)c(/N=C/c2coc3ccc(C)cc3c2=O)c1`, for which the Papp at 16 h in “physchem” is 4.94 ×10⁻⁶ cm/s. The outcome (in data set [1]; in data set [3]; in data set [6]; in data set [7]; with PC-12 [9]; in data set [13]) was Active. For the same compound, the outcome in [14] and in data set [17] was Active. For the same compound, the Activity in data set [2] was 0.55 molar ratio; in data set [8], 3.62 equiv; in the data set with PC-12 [10], “Non-Toxic”; with PC-12 [15], “Dose-dependent effect”. For the same compound, the result in the data set on PC-12 [4] and in the data set with PC-12 [12] was inactive. In the data set filed under Homo sapiens, the Ratio IC50 was determined as 6.21. Also, the results for the IC50 in data set [5] and in data set [11] were 0.816 µM and 5.12 µM, respectively. Moreover, the inhibition entry in data set [16] is “Active”. Further, the inhibition in data set [18] amounted to 60.3%; in [19], 75.1%.
As to `Cc1ccc(O)c(/N=C/c2coc3ccc(Br)cc3c2=O)c1`, the Ratio IC50 in the data set listed under Homo sapiens worked out at 6.38. In addition, the IC50 turned out to be 1.12 µM in data set [5] and 7.14 µM in data set [11]. For the same compound, the Activity was 0.784 equiv in data set [8] and “Non-Toxic” with PC-12 [10]. Besides, the Ratio in data set [20] was 1.9. In addition, in [19], the inhibition was determined as 89.5%.
